Patent US20240350506A1, “PREPARATION OF HISTONE DEACETYLASE INHIBITOR, AND PREPARATION METHOD THEREFOR AND USE THEREOF” (CHENGDU ZENITAR BIOMEDICAL TECHNOLOGY CO., LTD., priority 2021, published 2024)
Where a name gives a salt, the structure may show the parent alone. Read-outs that look alike come from different tables or passages of the source.

Assays:
[1] = Phase solubility of PM in in-situ basic salt-forming agents (arginine, meglumine); type: physicochemical; conditions: API saturated; for solubility thermodynamic: aqueous with cosolvent or surfactant or cyclodextrin, thermodynamic from solid, read-out: Drug concentration
Method: (§1) According to the pH guidance standard for injection, the optimal pH range for injection was 4-9.
(§2) Then, excessive PM raw materials were added and dissolved under ultrasound until saturation. A clear saturated solution was filtered out over a 0.22 μm membrane and transferred into a centrifuge tube. The concentration (mg/mL) and purity (0%) of dissolved PM raw materials were detected by HPLC, and then, whether there was drug precipitation was observed using a clarity detector after being stored in a refrigerator at 4° C. in dark for one day.

[2] = Phase solubility of PM in cyclodextrins (HP-β-CD, SBE-β-CD); type: physicochemical; conditions: API saturated; for Storing at 4° C. for one day: cell wraps ('sediment')
Method: as §1
as §2, with “excess” for “excessive”, “(%)” for “(0%)”

[3] = test system: Human multiple myeloma RPMI-8226 cell lines; assay: Pharmacodynamic experiment on subcutaneously transplanted tumor, RPMI-8226, in NOD/SCID mice; type: in vivo; conditions: 10 mg/kg i.v. three times a week; female NOD/SCID mice, day 32
Method: Establishment of subcutaneously transplanted tumor model: […] The cells in logarithmic growth phase were selected, and washed three times with PBS buffer under sterile conditions. The single cell suspension was diluted with PBS buffer to 7×10^7 cells/mL for future use. Prior to seeding, 0.1 mL of single cell suspension was taken, and then subcutaneously inoculated into the back of female NOD/SCID mice with a weight of >20 g. Grouping and treatment: When the volume of the tumor reached 100-200 mm^3 or above (the measurement and calculation method of tumor volume (TV): TV (mm^3)=a×b2×π/6, wherein a and b represent the longest diameter and the shortest diameter (mm), respectively), tumor-bearing mice with excessive or insufficient tumor volumes would be eliminated, and qualified animals were randomly divided into groups. […] “B” means Bortezomib; “D” means Dexamethasone; “L” means Lenalidomide. Experimental endpoint and analysis indicators: Example 5 of the present invention was administered 14 times, and the experiment was terminated on the 32nd day after the first treatment. The analysis indicators are: (2) Determination of tumor weight and calculation of tumor inhibition rate (%) When the experiment was terminated, according to the operating procedures of animal experiments, the animals was euthanized and dissected to collect the tumor mass, which was then weighted. The tumor inhibition rate (%) was calculated according to the following formula: [formula] (3) Animal survival and weight changes during the experimental process.

[4] = test system: Human Burkitt's lymphoma Daudi cell lines; assay: Pharmacodynamic experiment on subcutaneously transplanted tumor, Daudi, in NOD/SCID mice; type: in vivo; conditions: 10 mg/kg i.v. three times a week (LBH589 dose), female NOD/SCID mice, day 32
Method: Establishment of subcutaneously transplanted tumor model: Human Burkitt's lymphoma Daudi cell lines were in vitro cultured in RPMI-1640 medium containing 10% fetal bovine serum, 100 U/mL penicillin, and 100 μg/mL streptomycin. The cells in logarithmic growth phase were selected, and washed three times with PBS buffer under sterile conditions. The single cell suspension was diluted with PBS buffer to 2×10^8 cells/mL for future use. […], 0.1 mL of single cell suspension was taken, and then subcutaneously inoculated into the back of female NOD/SCID mice with a weight of >20 g. Grouping and treatment: When the volume of the tumor reached 100-200 mm^3 or above (the measurement and calculation method of tumor volume (TV): TV (mm^3)=a×b2×π/6, wherein a and b represent the longest diameter and the shortest diameter (mm), respectively), tumor-bearing mice with excessive or insufficient tumor volumes would be eliminated, and qualified animals were randomly divided into groups.
Experimental endpoint and analysis indicators: Example 5 of the present invention was administered 14 times, and the experiment was terminated on the 32nd day after the first treatment. The analysis indicators are:
(2) Determination of tumor weight and calculation of tumor inhibition rate (%)
When the experiment was terminated, the animals was euthanized according to the operating procedures of animal experiments, and dissected to collect the tumor mass, which was then weighted. The tumor inhibition rate (%) was calculated according to the following formula: […]
(3) Animal survival and weight changes during the experimental process.

SMILES: CN(Cc1nc2c(N3CCOCC3)nc(-c3ccc(N)cc3)nc2n1C)c1ncc(C(=O)NO)cn1 [API, purinostat mesylate]
- solubility thermodynamic ([1]; 1‰ (M/V) arginine solution in UP water, Arginine 1‰): 50 µg/mL
- solubility thermodynamic ([1]; 1‰ (M/V) meglumine solution in UP water, Meglumine 1‰): 130 µg/mL
- solubility thermodynamic ([1]; 3‰ (M/V) arginine solution in UP water, Arginine 3‰): 110 µg/mL
- solubility thermodynamic ([1]; 3‰ (M/V) meglumine solution in UP water, Meglumine 3‰): 240 µg/mL
- solubility thermodynamic ([1]; 5‰ (M/V) arginine solution in UP water, Arginine 5‰): 170 µg/mL
- solubility thermodynamic ([1]; 5‰ (M/V) meglumine solution in UP water, Meglumine 5‰): 350 µg/mL
- solubility thermodynamic ([1]; 8‰ (M/V) arginine solution in UP water, Arginine 8‰): 280 µg/mL
- solubility thermodynamic ([1]; 8‰ (M/V) meglumine solution in UP water, Meglumine 8‰): 460 µg/mL
- solubility thermodynamic ([1]; 10‰ (M/V) arginine solution in UP water, Arginine 10‰): 370 µg/mL
- solubility thermodynamic ([1]; 10‰ (M/V) meglumine solution in UP water, Meglumine 10‰): 700 µg/mL
- Drug purity (%) ([1]; Arginine 1‰): 100%
- pH value ([1]; Arginine 1‰): 8.87
- Drug purity (%) ([1]; Arginine 3‰): 100%
- pH value ([1]; Arginine 3‰): 9.30
- Drug purity (%) ([1]; Arginine 5‰): 100%
- pH value ([1]; Arginine 5‰): 9.61
- Drug purity (%) ([1]; Arginine 8‰): 98.97%
- pH value ([1]; Arginine 8‰): 9.76
- Drug purity (%) ([1]; Arginine 10‰): 99.24%
- pH value ([1]; Arginine 10‰): 9.84
- Drug purity (%) ([1]; Meglumine 1‰): 100%
- pH value ([1]; Meglumine 1‰): 9.65
- Drug purity (%) ([1]; Meglumine 3‰): 99.80%
- pH value ([1]; Meglumine 3‰): 9.98
- Drug purity (%) ([1]; Meglumine 5‰): 96.55%
- pH value ([1]; Meglumine 5‰): 10.22
- Drug purity (%) ([1]; Meglumine 8‰): 99.45%
- pH value ([1]; Meglumine 8‰): 10.41
- Drug purity (%) ([1]; Meglumine 10‰): 99.07%
- pH value ([1]; Meglumine 10‰): 10.42
- Drug concentration ([2]; HP-β-CD 5% (M/V)): 1850 µg/mL
- Drug purity (%) ([2]; HP-β-CD 5% (M/V)): 99.21%
- pH values ([2]; HP-β-CD 5% (M/V)): 2.42
- Storing at 4° C. for one day ([2]; HP-β-CD 5% (M/V)): Trace
- Drug concentration ([2]; HP-β-CD 10% (M/V)): 2020 µg/mL
- Drug purity (%) ([2]; HP-β-CD 10% (M/V)): 99.15%
- pH values ([2]; HP-β-CD 10% (M/V)): 2.54
- Storing at 4° C. for one day ([2]; HP-β-CD 10% (M/V)): Trace
- Drug concentration ([2]; HP-β-CD 15% (M/V)): 3160 µg/mL
- Drug purity (%) ([2]; HP-β-CD 15% (M/V)): 99.08%
- pH values ([2]; HP-β-CD 15% (M/V)): 2.55
- Storing at 4° C. for one day ([2]; HP-β-CD 15% (M/V)): Trace
- Drug concentration ([2]; HP-β-CD 20% (M/V)): 4130 µg/mL
- Drug purity (%) ([2]; HP-β-CD 20% (M/V)): 98.96%
- pH values ([2]; HP-β-CD 20% (M/V)): 2.67
- Storing at 4° C. for one day ([2]; HP-β-CD 20% (M/V)): Trace
- Drug concentration ([2]; HP-β-CD 25% (M/V)): 4520 µg/mL
- Drug purity (%) ([2]; HP-β-CD 25% (M/V)): 98.24%
- pH values ([2]; HP-β-CD 25% (M/V)): 2.7
- Storing at 4° C. for one day ([2]; HP-β-CD 25% (M/V)): Trace
- Drug concentration ([2]; SBE-β-CD 5% (M/V)): 930 µg/mL
- Drug purity (%) ([2]; SBE-β-CD 5% (M/V)): 99.78%
- pH value ([2]; SBE-β-CD 5% (M/V)): 3.77
- Storing at 4° C. for one day ([2]; SBE-β-CD 5% (M/V)): Trace
- Drug concentration ([2]; SBE-β-CD 10% (M/V)): 1180 µg/mL
- Drug purity (%) ([2]; SBE-β-CD 10% (M/V)): 99.01%
- pH value ([2]; SBE-β-CD 10% (M/V)): 3.71
- Storing at 4° C. for one day ([2]; SBE-β-CD 10% (M/V)): Trace
- Drug concentration ([2]; SBE-β-CD 15% (M/V)): 1800 µg/mL
- Drug purity (%) ([2]; SBE-β-CD 15% (M/V)): 99.35%
- pH value ([2]; SBE-β-CD 15% (M/V)): 3.67
- Storing at 4° C. for one day ([2]; SBE-β-CD 15% (M/V)): Trace
- Drug concentration ([2]; SBE-β-CD 20% (M/V)): 2220 µg/mL
- Drug purity (%) ([2]; SBE-β-CD 20% (M/V)): 99.35%
- pH value ([2]; SBE-β-CD 20% (M/V)): 3.64
- Storing at 4° C. for one day ([2]; SBE-β-CD 20% (M/V)): Trace
- Drug concentration ([2]; SBE-β-CD 25% (M/V)): 2610 µg/mL
- Drug purity (%) ([2]; SBE-β-CD 25% (M/V)): 99.17%
- pH value ([2]; SBE-β-CD 25% (M/V)): 3.57
- Storing at 4° C. for one day ([2]; SBE-β-CD 25% (M/V)): Trace

SMILES: Cc1[nH]c2ccccc2c1CCNCc1ccc(/C=C/C(=O)NO)cc1 [LBH589]
- Animal number End/Beginning [3]: 6/6
- Tumor inhibition rate (%) [3]: 59.79%
- Tumor weight (g) X ± SD [3]: 0.90 ± 0.37 g
- Animal numbers End/Begining [4]: 7/7
- Tumor inhibition rate (%) [4]: 76.92%
- Weight of tumor mass X ± SD ([4]; in g (unit assumed)): 0.83 ± 0.38
